Reference: BigSolDB 2.1

For `CC(=O)N[C@@H](CCC(N)=O)C(=O)O`, the solubility (mole fraction) (in 2-butanone, 283.15 K) was 0.000381, the solubility (mole fraction) (in 2-butanone, 288.15 K) was 0.000395 and the solubility (mole fraction) (in 2-butanone, 293.15 K) was 0.000425. The solubility (mole fraction) (in 2-butanone, 298.15 K) was 0.000451, the solubility (mole fraction) (in 2-butanone, 303.15 K) was 0.000479 and the solubility (mole fraction) (in 2-butanone, 308.15 K) was 0.000516. It also gave a solubility (mole fraction) (in 2-butanone, 313.15 K) of 0.000564, a solubility (mole fraction) (in 2-butanone, 318.15 K) of 0.000606 and a solubility (mole fraction) (in 2-butanone, 323.15 K) of 0.000658. The solubility (mole fraction) (in acetone, 283.15 K) was 0.00016, the solubility (mole fraction) (in acetone, 288.15 K) was 0.000192 and the solubility (mole fraction) (in acetone, 293.15 K) was 0.000232. For the same molecule, the solubility (mole fraction) (in acetone, 298.15 K) was 0.000275, the solubility (mole fraction) (in acetone, 303.15 K) was 0.000312 and the solubility (mole fraction) (in acetone, 308.15 K) was 0.000342. It also gave a solubility (mole fraction) (in acetone, 313.15 K) of 0.000389, a solubility (mole fraction) (in acetone, 318.15 K) of 0.000422 and a solubility (mole fraction) (in acetone, 323.15 K) of 0.000475. The solubility (mole fraction) (in acetonitrile, 283.15 K) was 0.000116, the solubility (mole fraction) (in acetonitrile, 288.15 K) was 0.000128 and the solubility (mole fraction) (in acetonitrile, 293.15 K) was 0.000139. For the same molecule, the solubility (mole fraction) (in acetonitrile, 298.15 K) was 0.000152, the solubility (mole fraction) (in acetonitrile, 303.15 K) was 0.000165 and the solubility (mole fraction) (in acetonitrile, 308.15 K) was 0.000179. It also gave a solubility (mole fraction) (in acetonitrile, 313.15 K) of 0.000194, a solubility (mole fraction) (in acetonitrile, 318.15 K) of 0.000205 and a solubility (mole fraction) (in acetonitrile, 323.15 K) of 0.000217. For the same molecule, the solubility (mole fraction) (in ethanol, 283.15 K) was 0.000347, the solubility (mole fraction) (in ethanol, 288.15 K) was 0.000389 and the solubility (mole fraction) (in ethanol, 293.15 K) was 0.000461. The solubility (mole fraction) (in ethanol, 298.15 K) was 0.000543, the solubility (mole fraction) (in ethanol, 303.15 K) was 0.000618 and the solubility (mole fraction) (in ethanol, 308.15 K) was 0.000685. It also gave a solubility (mole fraction) (in ethanol, 313.15 K) of 0.000768, a solubility (mole fraction) (in ethanol, 318.15 K) of 0.000845 and a solubility (mole fraction) (in ethanol, 323.15 K) of 0.000935. For the same molecule, the solubility (mole fraction) (in ethyl acetate, 283.15 K) was 0.000101, the solubility (mole fraction) (in ethyl acetate, 288.15 K) was 0.000136 and the solubility (mole fraction) (in ethyl acetate, 293.15 K) was 0.000186. For the same molecule, the solubility (mole fraction) (in ethyl acetate, 298.15 K) was 0.000222, the solubility (mole fraction) (in ethyl acetate, 303.15 K) was 0.000271 and the solubility (mole fraction) (in ethyl acetate, 308.15 K) was 0.000323. For the same molecule, the solubility (mole fraction) (in ethyl acetate, 313.15 K) was 0.000362, the solubility (mole fraction) (in ethyl acetate, 318.15 K) was 0.000402 and the solubility (mole fraction) (in ethyl acetate, 323.15 K) was 0.000431. It also gave a solubility (mole fraction) (in isobutanol, 283.15 K) of 0.000288, a solubility (mole fraction) (in isobutanol, 288.15 K) of 0.000309 and a solubility (mole fraction) (in isobutanol, 293.15 K) of 0.000354. For the same molecule, the solubility (mole fraction) (in isobutanol, 298.15 K) was 0.000415, the solubility (mole fraction) (in isobutanol, 303.15 K) was 0.000464 and the solubility (mole fraction) (in isobutanol, 308.15 K) was 0.000527. It also gave a solubility (mole fraction) (in isobutanol, 313.15 K) of 0.000587, a solubility (mole fraction) (in isobutanol, 318.15 K) of 0.000635 and a solubility (mole fraction) (in isobutanol, 323.15 K) of 0.000707. It also gave a solubility (mole fraction) (in methanol, 283.15 K) of 0.000974, a solubility (mole fraction) (in methanol, 288.15 K) of 0.00112 and a solubility (mole fraction) (in methanol, 293.15 K) of 0.00132. It also gave a solubility (mole fraction) (in methanol, 298.15 K) of 0.00149, a solubility (mole fraction) (in methanol, 303.15 K) of 0.00176 and a solubility (mole fraction) (in methanol, 308.15 K) of 0.00206. The solubility (mole fraction) (in methanol, 313.15 K) was 0.00243, the solubility (mole fraction) (in methanol, 318.15 K) was 0.00281 and the solubility (mole fraction) (in methanol, 323.15 K) was 0.00318. It also gave a solubility (mole fraction) (in methyl acetate, 283.15 K) of 0.000141, a solubility (mole fraction) (in methyl acetate, 288.15 K) of 0.000167 and a solubility (mole fraction) (in methyl acetate, 293.15 K) of 0.000201. For the same molecule, the solubility (mole fraction) (in methyl acetate, 298.15 K) was 0.000245, the solubility (mole fraction) (in methyl acetate, 303.15 K) was 0.000277 and the solubility (mole fraction) (in methyl acetate, 308.15 K) was 0.000315. For the same molecule, the solubility (mole fraction) (in methyl acetate, 313.15 K) was 0.000351, the solubility (mole fraction) (in methyl acetate, 318.15 K) was 0.000401 and the solubility (mole fraction) (in methyl acetate, 323.15 K) was 0.000445. The solubility (mole fraction) (in n-butanol, 283.15 K) was 8.9e-05, the solubility (mole fraction) (in n-butanol, 288.15 K) was 0.000102 and the solubility (mole fraction) (in n-butanol, 293.15 K) was 0.000144. The solubility (mole fraction) (in n-butanol, 298.15 K) was 0.000193, the solubility (mole fraction) (in n-butanol, 303.15 K) was 0.000246 and the solubility (mole fraction) (in n-butanol, 308.15 K) was 0.000314. It also gave a solubility (mole fraction) (in n-butanol, 313.15 K) of 0.000372, a solubility (mole fraction) (in n-butanol, 318.15 K) of 0.000439 and a solubility (mole fraction) (in n-butanol, 323.15 K) of 0.000516. It also gave a solubility (mole fraction) (in n-propanol, 283.15 K) of 0.000371, a solubility (mole fraction) (in n-propanol, 288.15 K) of 0.000405 and a solubility (mole fraction) (in n-propanol, 293.15 K) of 0.000434. For the same molecule, the solubility (mole fraction) (in n-propanol, 298.15 K) was 0.000471, the solubility (mole fraction) (in n-propanol, 303.15 K) was 0.000498 and the solubility (mole fraction) (in n-propanol, 308.15 K) was 0.00053. It also gave a solubility (mole fraction) (in n-propanol, 313.15 K) of 0.000564, a solubility (mole fraction) (in n-propanol, 318.15 K) of 0.000594 and a solubility (mole fraction) (in n-propanol, 323.15 K) of 0.000637. The solubility (mole fraction) (in sec-butanol, 283.15 K) was 0.000347, the solubility (mole fraction) (in sec-butanol, 288.15 K) was 0.000395 and the solubility (mole fraction) (in sec-butanol, 293.15 K) was 0.000452. It also gave a solubility (mole fraction) (in sec-butanol, 298.15 K) of 0.000501, a solubility (mole fraction) (in sec-butanol, 303.15 K) of 0.000554 and a solubility (mole fraction) (in sec-butanol, 308.15 K) of 0.000605. It also gave a solubility (mole fraction) (in sec-butanol, 313.15 K) of 0.000661, a solubility (mole fraction) (in sec-butanol, 318.15 K) of 0.000705 and a solubility (mole fraction) (in sec-butanol, 323.15 K) of 0.000757. For the same molecule, the solubility (mole fraction) (in water, 283.15 K) was 0.00214, the solubility (mole fraction) (in water, 288.15 K) was 0.00233 and the solubility (mole fraction) (in water, 293.15 K) was 0.00265. The solubility (mole fraction) (in water, 298.15 K) was 0.00297, the solubility (mole fraction) (in water, 303.15 K) was 0.00358 and the solubility (mole fraction) (in water, 308.15 K) was 0.0043. For the same molecule, the solubility (mole fraction) (in water, 313.15 K) was 0.00492, the solubility (mole fraction) (in water, 318.15 K) was 0.00587 and the solubility (mole fraction) (in water, 323.15 K) was 0.00767.
